According to US20130324542A1, “[1,2,4]TRIAZOLO[4,3-B][1,2,4]TRIAZINE COMPOUNDS, PREPARATION METHOD AND USE THEREOF” (SHANGHAI INSTITUTE OF MATERIA MEDICA, CHINESE ACADEMY OF …, priority 2010, published 2013):

Columns and labels:
[1] = target: c-Met tyrosine kinase (Homo sapiens, UniProt P08581); experiment: c-Met kinase activity on molecular level (ELISA, Poly(Glu,Tyr)4:1 substrate); type: biochemical; details: ATP 5 μM, 37° C., 1 h
Description: Poly(Glu, Tyr)4:1 as an enzyme substrate was diluted by potassium ion-free PBS (10 mM, sodium phosphate buffer, 150 mM NaCl, pH7.2-7.4) into a solution of 20 μg/ml. […] After the liquid in wells was removed, the plate was washed three time by T-PBS (PBS solution containing 0.1% Tween-20) at 200 μl/well, 5 min for each time. The ELISA plate was then dried in an oven at 37° C. for 1-2 h.
Each well was added with 50 μL of ATP solution diluted by reaction buffer (50 mM HEPES pH 7.4, 50 mM MgCl2, 0.5 mM MnCl2, 0.2 mM Na3VO4, 1 mM DTT) at a final concentration of 5 μM. Compound diluted by 1% DMSO into a suitable concentration was added at 10 μl/well and then c-Met tyrosine kinase protein diluted by 40 μl of reaction buffer was added. The plate was placed on a shaking table (100 rpm) at 37° C. and incubated for 1 h, and then washed three times by T-PBS. For each assay, triplicate wells without enzyme were used as blank control and wells having the corresponding DMSO concentration without compound were used as negative control. Primary antibody PY99 (p-Tyr (PY99), Cell Signaling Technology, 1:1000 diluted in 5 mg/mL BSA T-PBS) was added at 100 μl/well. The plate was then placed on a shaking table at 37° C. and incubated for 0.5 h, and washed by T-PBS. Secondary antibody horseradish peroxidase-conjugated goat anti-mouse IgG (1:2000 diluted in 5 mg/mL BSA T-PBS) was added at 100 μl/well. The plate was then placed on a shaking table at 37° C. for 0.5 h and washed three times by T-PBS. 2 mg/mL of OPD developer (diluted by a 0.1M citric acid-sodium citrate buffer (pH=5.4) containing 0.03% of H2O2) was added at 100 μl/well, and the plate was kept in dark at 25° C. for 1-10 min. OPD was ultrasonically dissolved and the developer solution was prepared just before use. 2 M of H2SO4 was added at 50 μl/well to stop the reaction. The plate was read using a wavelength regulated multi-well spectrophotometer (SPECTRA MAX 190) at 490 nm.
The inhibition rate was calculated according to the following equation:
Inhibition rate (%)=(1−(ODcompound−ODblank)/(ODnegative−ODblank))×100%
IC50 value was calculated through a four-parameter fit according to the inhibition curve.

[2] = tested on: NIH3T3/TPR-Met cells; experiment: Cell proliferation mediated by c-Met, SRB assay, NIH3T3/TPR-Met cells; type: cell-based; details: Mus musculus, NIH3T3, 72 h, read-out: inhibition rate (%) on proliferation of NIH3T3/TPR-Met cells
Description: Three concentrations were set, and for each concentration, the test was carried out in triplicate wells. 72 h later, the culture medium was removed. The residue was fixed by precooled 10% TCA at 4° C. for 1 h, washed by distilled water for 5 times and dried at room temperature. […] The excess dye was removed by washed with 1% glacial acetic acid for 5 times and dried in air. At last, 150 μL of Tris-HCL solution (10 mM Tris, pH 10.0) was added to each well.

[3] = tested on: NIH3T3 background cells; experiment: Cell proliferation, SRB assay, NIH3T3 background cells as control; type: cell-based; details: Mus musculus, NIH3T3, 72 h, read-out: inhibition rate (%) on proliferation of NIH3T3 background cells
Description: NIH3T3/TPR-Met cells in the logarithmic growth phase and NIH3T3 background cells were seeded in a 96-well microcuture plate at 90111_, per well and cultivated overnight, followed by addition of 104 of the compound at different concentrations. Three concentrations were set, and for each concentration, the test was carried out in triplicate wells. 72 h later, the culture medium was removed. The residue was fixed by precooled 10% TCA at 4° C. for 1 h, washed by distilled water for 5 times and dried at room temperature. After that, 4 mg/mL of sulforodamine B (SRB) in 1% glacial acetic acid was added to each well (1004 per well) for staining at room temperature for 15 min. The excess dye was removed by washed with 1% glacial acetic acid for 5 times and dried in air. At last, 150 μL of Tris-HCL solution (10 mM Tris, pH 10.0) was added to each well. OD values were measured on a multi-well spectrophotometer at […].

c-Met tyrosine kinase, sequence (P08581 25-1390): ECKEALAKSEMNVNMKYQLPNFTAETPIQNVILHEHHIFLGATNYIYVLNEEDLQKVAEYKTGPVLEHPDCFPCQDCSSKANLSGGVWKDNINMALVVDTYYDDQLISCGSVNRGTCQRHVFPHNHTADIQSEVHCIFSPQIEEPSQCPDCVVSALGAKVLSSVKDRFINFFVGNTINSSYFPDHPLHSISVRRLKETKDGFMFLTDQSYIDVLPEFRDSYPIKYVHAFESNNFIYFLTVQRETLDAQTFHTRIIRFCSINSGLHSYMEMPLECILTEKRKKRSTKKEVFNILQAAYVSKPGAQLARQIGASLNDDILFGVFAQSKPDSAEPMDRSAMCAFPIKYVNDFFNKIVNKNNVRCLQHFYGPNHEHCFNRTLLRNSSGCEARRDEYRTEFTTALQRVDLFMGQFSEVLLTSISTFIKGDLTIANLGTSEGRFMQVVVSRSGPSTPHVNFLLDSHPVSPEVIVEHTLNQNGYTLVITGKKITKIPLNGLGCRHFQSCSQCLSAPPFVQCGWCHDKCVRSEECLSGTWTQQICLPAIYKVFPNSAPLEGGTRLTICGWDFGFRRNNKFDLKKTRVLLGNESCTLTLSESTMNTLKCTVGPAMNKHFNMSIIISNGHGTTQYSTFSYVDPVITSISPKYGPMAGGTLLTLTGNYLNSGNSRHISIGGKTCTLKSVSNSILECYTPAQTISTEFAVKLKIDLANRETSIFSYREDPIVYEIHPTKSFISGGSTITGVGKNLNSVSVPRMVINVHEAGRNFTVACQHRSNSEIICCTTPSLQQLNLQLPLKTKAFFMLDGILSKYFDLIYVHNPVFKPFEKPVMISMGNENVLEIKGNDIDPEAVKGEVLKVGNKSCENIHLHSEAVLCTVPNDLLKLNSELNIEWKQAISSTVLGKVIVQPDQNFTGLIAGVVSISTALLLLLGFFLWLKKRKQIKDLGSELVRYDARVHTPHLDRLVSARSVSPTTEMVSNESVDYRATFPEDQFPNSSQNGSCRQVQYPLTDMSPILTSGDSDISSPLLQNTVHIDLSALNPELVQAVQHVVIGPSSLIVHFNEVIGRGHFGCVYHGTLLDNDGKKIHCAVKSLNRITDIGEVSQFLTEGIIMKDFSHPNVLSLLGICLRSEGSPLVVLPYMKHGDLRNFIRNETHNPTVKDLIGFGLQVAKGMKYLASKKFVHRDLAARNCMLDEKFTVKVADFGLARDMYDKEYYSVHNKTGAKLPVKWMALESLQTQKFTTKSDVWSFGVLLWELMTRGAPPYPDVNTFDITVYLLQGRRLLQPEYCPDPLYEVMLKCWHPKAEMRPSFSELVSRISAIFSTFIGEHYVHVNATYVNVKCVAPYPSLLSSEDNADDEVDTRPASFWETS

| Structure (SMILES) | IC50 [1] [nM] | inhibition at 1 µM [2] [%] | inhibition at 10 µM [2] [%] | inhibition at 50 µM [2] [%] | inhibition at 1 µM [3] [%] | inhibition at 10 µM [3] [%] | inhibition at 50 µM [3] [%] |
| --- | --- | --- | --- | --- | --- | --- | --- |
| c1ccc(-c2cnc3nnc(COc4ccnc5ccccc45)n3n2)cc1 [II-22, 3-(4-quinolyloxymethyl)-6-phenyl-[1,2,4] triazolo[4,3-b][1,2,4]triazine] | 0.7 | 63.9 | 81.7 | 78.8 | 38.6 | 53.8 | 48.1 |
| COc1ccc(-c2cnc3nnc(COc4ccnc5ccccc45)n3n2)cc1 [II-23, 3-(4-quinolyloxymethyl)-6-(4-methoxyphenyl)-[1,2,4]triazolo[4,3-b][1,2,4]triazine] | 0.88 | 29 | 83.2 | 88.5 | 22.8 | 49.8 | 31.3 |
| Oc1ccc(-c2cnc3nnc(COc4ccnc5ccccc45)n3n2)cc1 [II-24, 3-(4-quinolyloxymethyl)-6-(4-hydroxyphenyl)-[1,2,4]triazolo[4,3-b][1,2,4]triazine] | 0.78 | 5.3 | 53.1 | 70.6 | 17.1 | 25.1 | 28.4 |
| COc1cccc(-c2cnc3nnc(COc4ccnc5ccccc45)n3n2)c1 [II-26, 3-(4-quinolyloxymethyl)-6-(3-methoxyphenyl)-[1,2,4]triazolo[4,3-b][1,2,4]triazine] | 1 | 20.9 | 82.7 | 83.9 | 36.8 | 58.7 | 62.2 |
| Oc1cccc(-c2cnc3nnc(COc4ccnc5ccccc45)n3n2)c1 [II-27, 3-(4-quinolyloxymethyl)-6-(3-hydroxyphenyl)-[1,2,4]triazolo[4,3-b][1,2,4]triazine] | 0.88 | 9.2 | 72.6 | 80.7 | 18.3 | 37.7 | 46 |
| COc1ccc2c(OCc3nnc4ncc(-c5cnn(C)c5)nn34)ccnc2c1 [II-29, 3-[(7-methoxy-4-quinolyl)oxymethyl]-6-[(1-methyl)-4-pyrazolo]-[1,2,4]triazolo[4,3-b][1,2,4] triazine] | 2.4 | 87.4 | 88.2 | 91.9 | 31.8 | 32.9 | 50.9 |
| Cc1[nH]c(/C=C2\C(=O)Nc3ccc(S(=O)(=O)N(C)c4cccc(Cl)c4)cc32)c(C)c1C(=O)N1CCN(C)CC1 [SU11274, reference compound] | 7.9 | 8.5 | 80.1 | 88.7 | 19.9 | 44.2 | 70.6 |
